Test results published in patent US6828317B2, “Antimicrobial thiadiazinone derivatives and their application for treatment of bacterial infections” (Pharmacia & Upjohn Company, priority 2002, dated 2004).
≈ marks a conversion by molar mass, not a printed value.

Assays:
H. influenzae 30063 = test: MIC by agar dilution, H. influenzae 30063; format: cell-based; details: Haemophilus influenzae, Mueller Hinton agar, overnight at 35° C.
From the text: (§1) The in vitro activity of compounds of the subject invention may be assessed by standard testing procedures such as the determination of minimum inhibitory concentration (MIC) by agar dilution as described in “Approved Standard. Methods for Dilution Antimicrobial Susceptibility Tests for Bacteria that Grow Aerobically,” 3rd ed., published 1993 by the National Committee for Clinical Laboratory standards, Villanova, Pa., USA. The in vitro MICs of test compounds may be determined by a standard agar dilution method. A stock drug solution of each analog is prepared in a preferred solvent, usually DMSO:H2O (1:3). Serial 2-fold dilutions of each sample are made using 1.0 ml aliquots of sterile distilled water. To each 1.0 ml aliquot of drug is added 9 ml of molten Mueller Hinton agar medium. The drug-supplemented agar is mixed, poured into 15×100 mm petri dishes, and allowed to solidify and dry prior to inoculation. Vials of each of the test microorganisms are maintained frozen in the vapor phase of a liquid nitrogen freezer. Test cultures are grown overnight at 35° C. on the medium appropriate for the microorganism. Colonies are harvested with a sterile swab, and cell suspensions are prepared in Trypticase Soy broth (TSB) to equal the turbidity of a 0.5 McFarland standard. A 1:20 dilution of each suspension is made in TSB. The plates containing the drug supplemented agar are inoculated with a 0.001 ml drop of the cell suspension using a Steers replicator, yielding approximately 10^4 to 10^5 cells per spot. The plates are incubated overnight at 35° C. Following incubation the Minimum Inhibitory Concentration (MIC μg/ml), the lowest concentration of drug that inhibits visible growth of the microorganism, is read and recorded.

S. aureus UC9213 = test: MIC by agar dilution, S. aureus UC9213; format: cell-based; details: Staphylococcus aureus, Mueller Hinton agar, overnight at 35° C.
From the text: as §1

S. pneumoniae UC9912 = test: MIC by agar dilution, S. pneumoniae UC9912; format: cell-based; details: Streptococcus pneumoniae, Mueller Hinton agar, overnight at 35° C.
From the text: as §1

| SMILES | MIC (H. influenzae 30063) [µg/mL] | melting point [°C] | MIC (S. aureus UC9213) [µg/mL] | MIC (S. pneumoniae UC9912) [µg/mL] |
| --- | --- | --- | --- | --- |
| CC(=O)NC[C@H]1CN(c2ccc(C3=NNC(=O)CS3)c(F)c2)C(=O)O1 [Example 1, N-{3-[3-Fluoro-4-(5-oxo-5,6-dihydro-4H-[1,3,4]thiadiazin-2-yl)-phenyl]-2-oxo-oxazolidin-5(S)-ylmethyl}-acetamide] | 1 (≈ 2.73 µM) | 206 to 209 | 0.5 (≈ 1.36 µM) | < 0.06 |
| CC(=O)NC[C@H]1CN(c2ccc(C3=NNC(=O)[C@H](C)S3)c(F)c2)C(=O)O1 [Example 2, N-{3-[3-Fluoro-4-(6(S)-methyl-5-oxo-5,6-dihydro-4H-[1,3,4]thiadiazin-2-yl)-phenyl]-2-oxo-oxazolidin-5(S)-ylmethyl}-acetamide] | 4 (≈ 10.5 µM) | 200 to 202 | 1 (≈ 2.63 µM) | 0.25 (≈ 0.657 µM) |
| CC(=O)NC[C@H]1CN(c2ccc(C3=NNC(=O)[C@@H](C)S3)c(F)c2)C(=O)O1 [Example 3, N-{3-[3-Fluoro-4-(6(R)-methyl-5-oxo-5,6-dihydro-4H-[1,3,4]thiadiazin-2-yl)-phenyl]-2-oxo-oxazolidin-5(S)-ylmethyl}-acetamide] | 4 (≈ 10.5 µM) | 205 to 206 | 1 (≈ 2.63 µM) | 0.25 (≈ 0.657 µM) |
| CC(=O)NC[C@H]1CN(c2ccc(C3=NNC(=O)C(C)(C)S3)c(F)c2)C(=O)O1 [Example 4, N-{3-[4-(6,6-Dimethyl-5-oxo-5,6-dihydro-4H-[1,3,4]thiadiazin-2-yl)-3-fluorophenyl]-2-oxo-oxazolidin-5(S)-ylmethyl}-acetamide] | 16 (≈ 40.6 µM) | 179 to 181 | 2 (≈ 5.07 µM) | 0.25 (≈ 0.634 µM) |
| CCC1SC(c2ccc(N3C[C@H](CNC(C)=O)OC3=O)cc2F)=NNC1=O (stereo partly drawn) [Example 5, N-{3-[3-Fluoro-4-(6-ethyl-5-oxo-5,6-dihydro-4H-[1,3,4]thiadiazin-2-yl)-phenyl]-2-oxo-oxazolidin-5(S)-ylmethyl}-acetamide] | 32 (≈ 81.1 µM) | 177 to 179 | 4 (≈ 10.1 µM) | 2 (≈ 5.07 µM) |
| CC(=O)NC[C@H]1CN(c2ccc(C3=NNC(=O)C(C(C)C)S3)c(F)c2)C(=O)O1 (stereo partly drawn) [Example 7, N-{3-[3-Fluoro-4-(6-isopropyl-5-oxo-5,6-dihydro-4H-[1,3,4]thiadiazin-2-yl)-phenyl]-2-oxo-oxazolidin-5(S)-ylmethyl}-acetamide] | – | 201 to 203 | – | – |
| CC(=O)NC[C@H]1CN(c2ccc(C3=NNC(=O)C4(CCC4)S3)c(F)c2)C(=O)O1 [Example 8, N-{3-[3-Fluoro-4-(9-oxo-5-thia-7,8-diazaspiro[3.5]non-6-en-6-yl)-phenyl]-2-oxo-oxazolidin-5(S)-ylmethyl}-acetamide] | 32 (≈ 78.7 µM) | 214 to 215 | 2 (≈ 4.92 µM) | 0.5 (≈ 1.23 µM) |
| CC(=O)NC[C@H]1CN(c2ccc(C3=NNC(=O)C(c4ccccc4)S3)c(F)c2)C(=O)O1 (stereo partly drawn) [Example 9, N-{3-[3-Fluoro-4-(5-oxo-6-phenyl-5,6-dihydro-4H-[1,3,4]thiadiazin-2-yl)-phenyl]-2-oxo-oxazolidin-5(S)-ylmethyl}-acetamide] | 16 (≈ 36.2 µM) | 122 to 123 | 4 (≈ 9.04 µM) | 0.5 (≈ 1.13 µM) |
| CC(=O)NC[C@H]1CN(c2ccc(C3=NNC(=O)C(F)S3)c(F)c2)C(=O)O1 (stereo partly drawn) [Example 10, N-{3-[3-Fluoro-4-(6-fluoro-5-oxo-5,6-dihydro-4H-[1,3,4]thiadiazin-2-yl)-phenyl]-2-oxo-oxazolidin-5(S)-ylmethyl}-acetamide] | – | 218 to 220 | – | – |
| CCC(=O)NC[C@H]1CN(c2ccc(C3=NNC(=O)CS3)c(F)c2)C(=O)O1 [Example 15, N-{3-[3-Fluoro-4-(5-oxo-5,6-dihydro-4H-[1,3,4]thiadiazin-2-yl)-phenyl]-2-oxo-oxazolidin-5(S)-ylmethyl}-propionamide] | 2 (≈ 5.26 µM) | 192 to 193 | 1 (≈ 2.63 µM) | < 0.06 |
| O=C1CSC(c2ccc(N3C[C@H](CNC(=O)C4CC4)OC3=O)cc2F)=NN1 [Example 16, Cyclopropanecarboxylic acid {3-[3-fluoro-4-(5-oxo-5,6-dihydro-4H-[1,3,4]thiadiazin-2-yl)-phenyl]-2-oxo-oxazolidin-5(S)-ylmethyl}-amide] | 2 (≈ 5.1 µM) | 239 to 240 | 2 (≈ 5.1 µM) | 0.125 (≈ 0.319 µM) |
| O=C(CO)NC[C@H]1CN(c2ccc(C3=NNC(=O)CS3)c(F)c2)C(=O)O1 [Example 17, N-{3-[3-Fluoro-4-(5-oxo-5,6-dihydro-4H-[1,3,4]thiadiazin-2-yl)-phenyl]-2-oxo-oxazolidin-5(S)-ylmethyl}-2-hydroxyacetamide] | 4 (≈ 10.5 µM) | 157 to 158 | 2 (≈ 5.23 µM) | 0.125 (≈ 0.327 µM) |
| NC(=O)NC[C@H]1CN(c2ccc(C3=NNC(=O)CS3)c(F)c2)C(=O)O1 [Example 18, {3-[3-Fluoro-4-(5-oxo-5,6-dihydro-4H-[1,3,4]thiadiazin-2-yl)-phenyl]-2-oxo-oxazolidin-5(S)-ylmethyl}-urea] | 4 (≈ 10.9 µM) | 235 to 236 | 2 (≈ 5.44 µM) | 0.125 (≈ 0.34 µM) |
| COC(=O)NC[C@H]1CN(c2ccc(C3=NNC(=O)CS3)c(F)c2)C(=O)O1 [Example 19] | 4 (≈ 10.5 µM) | – | 1 (≈ 2.62 µM) | 0.125 (≈ 0.327 µM) |
| CC(C)(C)OC(=O)NC[C@H]1CN(c2ccc(C3=NNC(=O)CS3)c(F)c2)C(=O)O1 [Example 20, N-{3-[3-Fluoro-4-(5-oxo-5,6-dihydro-4H-[1,3,4]thiadiazin-2-yl)-phenyl]-2-oxo-oxazolidin-5(S)-ylmethyl}-carbamic acid tert-butyl ester] | 64 (≈ 151 µM) | 167 to 168 | 2 (≈ 4.71 µM) | 2 (≈ 4.71 µM) |
| CC(=O)CC(=O)NC[C@H]1CN(c2ccc(C3=NNC(=O)CS3)c(F)c2)C(=O)O1 [Example 21, N-{3-[3-Fluoro-4-(5-oxo-5,6-dihydro-4H-[1,3,4]thiadiazin-2-yl)-phenyl]-2-oxo-oxazolidin-5(S)-ylmethyl}-3-oxo-butyramide] | 8 (≈ 19.6 µM) | 176 to 178 | 4 (≈ 9.79 µM) | 0.5 (≈ 1.22 µM) |
| O=C(CC(=O)c1ccc(F)cc1)NC[C@H]1CN(c2ccc(C3=NNC(=O)CS3)c(F)c2)C(=O)O1 [Example 22, N-{3-[3-Fluoro-4-(5-oxo-5,6-dihydro-4H-[1,3,4]thiadiazin-2-yl)-phenyl]-2-oxo-oxazolidin-5(S)-ylmethyl}-3-(4-fluorophenyl)-3-oxo-propionamide] | 16 (≈ 32.8 µM) | 184 to 187 | 4 (≈ 8.19 µM) | 1 (≈ 2.05 µM) |
| O=C(/C=C/c1ccc(/C=N/O)cc1)NC[C@H]1CN(c2ccc(C3=NNC(=O)CS3)c(F)c2)C(=O)O1 [Example 23, N-{3-[3-Fluoro-4-(5-oxo-5,6-dihydro-4H-[1,3,4]thiadiazin-2-yl)-phenyl]-2-oxo-oxazolidin-5(S)-ylmethyl}-3-[4-(hydroxyimino-methyl)-phenyl]-acrylamide] | 8 (≈ 16.1 µM) | 144 to 145 | 1 (≈ 2.01 µM) | 0.25 (≈ 0.503 µM) |
| CO/N=C/c1ccc(/C=C/C(=O)NC[C@H]2CN(c3ccc(C4=NNC(=O)CS4)c(F)c3)C(=O)O2)cc1 [Example 24, N-{3-[3-Fluoro-4-(5-oxo-5,6-dihydro-4H-[1,3,4]thiadiazin-2-yl)-phenyl]-2-oxo-oxazolidin-5(S)-ylmethyl}-3-[4-(methoxyimino-methyl)-phenyl]-acrylamide] | > 64 | – | 1 (≈ 1.95 µM) | 0.06 (≈ 0.117 µM) |
| CC(=S)NC[C@H]1CN(c2ccc(C3=NNC(=O)CS3)c(F)c2)C(=O)O1 [Example 25, N-{3-[3-Fluoro-4-(5-oxo-5,6-dihydro-4H-[1,3,4]thiadiazin-2-yl)-phenyl]-2-oxo-oxazolidin-5(S)-ylmethyl}-thioacetamide] | 0.5 (≈ 1.31 µM) | 182 to 183 | 0.125 (≈ 0.327 µM) | < 0.06 |
| CC(=S)NC[C@H]1CN(c2ccc(C3=NNC(=S)CS3)c(F)c2)C(=O)O1 [Example 26, N-{3-[3-Fluoro-4-(5-thioxo-5,6-dihydro-4H-[1,3,4]thiadiazin-2-yl)-phenyl]-2-oxo-oxazolidin-5(S)-ylmethyl}-thioacetamide] | 1 (≈ 2.51 µM) | 158 to 161 | 0.25 (≈ 0.627 µM) | < 0.06 |
| CC(C)(C)OC(=O)NC[C@H]1CN(c2ccc(C3=NNC(=S)CS3)c(F)c2)C(=O)O1 [Example 28, N-{3-[3-Fluoro-4-(5-thioxo-5,6-dihydro-4H-[1,3,4]thiadiazin-2-yl)-phenyl]-2-oxo-oxazolidin-5(S)-ylmethyl}-carbamic acid tert-butyl ester] | – | 134 to 136 | – | – |
| CC(=O)NC[C@H]1CN(c2ccc(C3=NNC(=O)C(OC(C)=O)S3)c(F)c2)C(=O)O1 (stereo partly drawn) [Example 31, Acetic acid 2-{4-[5(S)-(acetylaminomethyl)-2-oxo-oxazolidin-3-yl]-2-fluorophenyl}-5-oxo-5,6-dihydro-4H-[1,3,4]thiadiazin-6-yl ester] | – | 174 to 177 | – | – |
| COC(=O)CN1N=C(c2ccc(N3C[C@H](CNC(C)=O)OC3=O)cc2F)SCC1=O [Example 33] | – | 157 to 158 | – | – |
